According to USRE40387E1, “Pharmaceutical compositions, dosage forms and methods for oral administration of epothilones” (Bristol-Myers Squibb Company, priority 2001, dated 2008):

Tests used:
[1] = Stability of aqueous solution of Compound (A) (t95); type: physicochemical; conditions: 37° C.
Method: Certain epothilones including the preferred epothilone, Compound (A), are unstable in acidic aqueous environments and decompose, presumably by an acid catalyzed hydrolytic opening of the epoxide ring. For example, the time for 5% drug loss (t95) at 37° C. for an aqueous solution of Compound (A) is approximately 38 minutes at pH 7.4 but only about 0.2 minutes at pH 2.5. Thus, when epothilones of Formula (Ia) or (Ib), or a pharmaceutically acceptable salt, solvate, clathrate, hydrate, or prodrug thereof, are orally administered they decompose in the stomach of the patient such that they are either minimally absorbed or not absorbed by the gastrointestinal tract.

[2] = Pharmacokinetics in rats (intraarterial, oral, intraduodenal); type: in vivo, male Sprague Dawley rats
Method: Plasma samples from pharmacokinetic/pharmacodynamic studies were analyzed for the concentration of Compound (A) using an LC/MS/MS (liquid chromatography/mass spectrometry/mass spectrometry) assay with a standard curve range of 5 to 20,000 ng/mL (10 to 40,000 nM) for studies in mice and 2 to 1000 ng/mL (4 to 2000 nM) for studies in rats and dogs. In pharmacodynamic studies, concentrations of Compound (A) were determined using the LC/MS/MS assay with a standard curve range of 5 to 20,000 ng/mL (10 to 40,000 nM) in mouse plasma. The LC/MS/MS assay was also used to determine the concentrations of Compound (B), a degradation product of Compound (A) formed in the stock/dosing solution or in vivo, in rat and dog plasma. The structure of Compound (B) is: [drawing 9]
Compound (A) was given as a single intraarterial (2 mg/kg; 10 min infusion), oral (8 mg/kg), and intraduodenal (8 mg/kg) dose to fasted male Sprague Dawley rats (n×3-6 per group). All dosing solutions were prepared in 20% ethanol. Plasma samples were obtained over a period of 24 h after dosing and the concentration of Compound (A) was determined using the LC/MS/MS assay.

[3] = Excretion in bile duct cannulated rats; type: in vivo, Sprague Dawley rats; conditions: intraarterial 10 mg/kg or oral 20 mg/kg, 9 h
Method: In another study, bile duct cannulated Sprague Dawley rats (n=2 per group) received a single intraterial (10 mg/kg) or oral (20 mg/kg) dose of Compound (A), and bile, urine, and plasma samples were collected over a period of 9 h after dose. There was negligible excretion of intact Compound (A) in the bile (C 1% of the dose). There was some detectable amount of Compound (A) in the urine, but actual concentrations were not quantified due to lack of stability data for Compound (A) in the urine. Several drug-related compounds in the urine and plasma were tentatively identified by LC/MS and included an isomer (M+0), and a hydrolysis product (M+18). In addition, a metabolite (M−2) was detected in the plasma.

CYP3A4 = target: T1, CYP3A4 (Homo sapiens, UniProt P08684); assay: Biotransformation of Compound (A) in human liver microsomes with specific CYP inhibitors; type: in vitro ADME
T1 construct: from tissue; host or cells: human liver microsomes

[4] = Single dose oral toxicity study in dogs; type: in vivo; conditions: oral solution 0.4 mL/kg
Method: The mean (SD) [n=3] […] Although the oral formulation for both studies was identical, the total volume of the oral solution administered in the current study was about 1.3 mL/kg while that in the toxicology study was 0.4 mL/kg. […] Compound (A) is an acid labile drug, thus, the higher exposure after oral solution in the current study compared to the toxicology study is likely related to better protection from gastric acid degradation.

[5] = Pharmacokinetics of oral and IV Compound A in cancer patients; type: in vivo
Method: Patients with advanced malignancies were administered Compound A weekly as a 30-minute infusion (a course=3 intravenous weekly administrations). […] Serial plasma sampling was obtained on day 6 and day 1 of course 1 to assess pharmacokinetics by an LC/MS/MS. The LC/MS/MS assay was the same as used in Example 1.
Following oral administration on day 6, 7 mL blood samples was collected into Becton Dickinson Vacutainer tubes with K3EDTA as anticoagulent (lavender-colored top) according to the following schedule (expressed as hours:minutes from the start of the oral administration): predose, 00:15, 00:30, 00:45, 01:00, 01:30, 02:00, 03:00, 04:00, 06:00, 08:00, 24:00, 48:00, and 72:00. Following IV administration on day 1, 7 mL blood samples were collected into Becton Dickinson Vacutainer tubes with K3EDTA as anticoagulent (lavender-colored top) according to the following schedule (expressed as hours:minutes from the start of the IV infusion): predose, 00:15, 00:30 (end-of infusion), 00:45, 01:00, 01:30, 02:00, 03:00, 04:00, 06:00, 08:00, 24:00, 48:00, and 72:00.
Immediately after blood collection, the Vacutainer tubes were inverted several times to ensure mixing with the anticoagulant and then immediately placed on crushed ice. Within 30 minutes of collection, samples were centrifuged for 5 minutes at approximately 2000×g and 0 to 5 EC 5° C. The plasma was then transferred to separate pre-labeled screw-capped polypropylene tubes and stored at −70 EC −70° C. until bioanalysis. Plasma concentrations of Compound A were analyzed using the LC/MS/MS assay described in Example 1.
The plasma concentration versus time data were analyzed using non-compartmental methods. The pharmacokinetic parameters determined for Compound A included the maximum observed plasma concentration (Cmax), time to reach Cmax (Tmax), area under the plasma concentration time curve from time zero to the time of last sampling time T(AUC (0−T)).

[6] = 20 mg/m^2, oral solution with buffer
[7] = 25 mg/m^2, oral solution with buffer
[8] = 305 mg/m^2 as printed, oral solution with buffer

T1 sequence (P08684 whole entry): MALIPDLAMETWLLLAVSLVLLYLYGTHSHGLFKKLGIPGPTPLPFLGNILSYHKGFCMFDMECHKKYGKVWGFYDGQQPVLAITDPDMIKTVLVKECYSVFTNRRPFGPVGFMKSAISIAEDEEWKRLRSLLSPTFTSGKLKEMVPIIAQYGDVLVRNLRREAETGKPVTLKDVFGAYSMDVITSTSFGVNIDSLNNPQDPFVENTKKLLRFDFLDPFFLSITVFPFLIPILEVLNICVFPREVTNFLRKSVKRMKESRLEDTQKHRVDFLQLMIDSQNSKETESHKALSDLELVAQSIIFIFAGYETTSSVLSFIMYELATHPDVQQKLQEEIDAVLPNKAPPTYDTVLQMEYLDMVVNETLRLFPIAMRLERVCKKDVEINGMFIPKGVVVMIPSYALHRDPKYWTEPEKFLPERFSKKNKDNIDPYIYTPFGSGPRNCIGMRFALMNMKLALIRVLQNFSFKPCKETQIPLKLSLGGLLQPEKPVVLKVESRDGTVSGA

For `C/C(=C\c1csc(C)n1)[C@@H]1C[C@@H]2O[C@]2(C)CCC[C@H](C)[C@H](O)[C@@H](C)C(=O)C(C)(C)[C@@H](O)CC(=O)N1` (relative stereo) [Compound (A), [1S-[1R*,3R*(E),7R*,10S*,11R*,12R*,16S*]]-7,11-dihydroxy 8,8,10,12,16-pentamethyl-3-[1-methyl-2-(2-methyl-4-thiazolyl)ethenyl-4-aza-17-oxobicyclo[14.1.0]heptadecane-5,9-dione], the “time for 5% drug loss (t95)” value ([1]; pH 2.5) was “about 0.2 minutes”, the “time for 5% drug loss (t95)” value ([1]; pH 7.4) was “approximately 38 minutes” and the “CLT (mean)” value ([2]; intraarterial 2 mg/kg) was 56 mL/min/kg. The “VSS (mean)” value ([2]; intraarterial 2 mg/kg) was 23 L/kg, the “mean T-HALF” value ([2]; intraarterial 2 mg/kg) was 9.6 h and the “CLT as percent of liver blood flow” value ([2]; intraarterial 2 mg/kg, liver blood flow 56 mL/min/kg) was 100%. The Tmax ([2]; intraduodenal 8 mg/kg) was 4.8 min, the absolute oral bioavailability ([2]; intraduodenal 8 mg/kg) was 27% and the “mean CMAX” value ([2]; intraduodenal 8 mg/kg) was 642 ng/mL. The Tmax ([2]; oral 8 mg/kg) was 10.2 min, the absolute oral bioavailability ([2]; oral 8 mg/kg) was 7.5% and the “mean CMAX” value ([2]; oral 8 mg/kg) was 228 ng/mL. The “excretion of intact Compound (A) in the bile” value [3] was < 1 % of the dose, the “cytochrome P450 responsible for metabolism” value (CYP3A4) was “may be a substrate for CYP3A4” and the “dose-normalized mean AUC” value [4] was 257 ng·h/mL. For the same compound, the “AUC(0-T), mean” value ([5]; 20 mg/m^2, IV) was 796 ng·h/mL, the “TMAX, median” value ([5]; 20 mg/m^2, IV) was 15 min and the “CMAX, mean” value ([5]; 20 mg/m^2, IV, N 3) was 251 ng/mL. For the same compound, the “% F, mean” value [5, 6] was 43.5%, the “AUC(0-T), mean” value [5, 6] was 404 ng·h/mL and the “TMAX, median” value [5, 6] was 60 min. The “CMAX, mean” value ([5]; 20 mg/m^2, oral solution with buffer, N 3) was 142 ng/mL, the “AUC(0-T), mean” value ([5]; 25 mg/m^2, IV) was 848 ng·h/mL and the “TMAX, median” value ([5]; 25 mg/m^2, IV) was 30 min. For the same compound, the “CMAX, mean” value ([5]; 25 mg/m^2, IV, N 11) was 447 ng/mL, the “% F, mean” value [5, 7] was 55.6% and the “AUC(0-T), mean” value [5, 7] was 533 ng·h/mL. For the same compound, the “TMAX, median” value [5, 7] was 30 min, the “CMAX, mean” value ([5]; 25 mg/m^2, oral solution with buffer, N 11) was 180 ng/mL and the “AUC(0-T), mean” value ([5]; 305 mg/m^2 as printed, IV) was 1155 ng·h/mL. For the same compound, the “TMAX, median” value ([5]; 305 mg/m^2 as printed, IV) was 30 min, the “CMAX, mean” value ([5]; 305 mg/m^2 as printed, IV, N 4) was 711 ng/mL and the “% F, mean” value [5, 8] was 62.2%. For the same compound, the “AUC(0-T), mean” value [5, 8] was 708 ng·h/mL, the “TMAX, median” value [5, 8] was 30 min and the “CMAX, mean” value ([5]; 305 mg/m^2 as printed, oral solution with buffer, N 4) was 274 ng/mL.
